According to PubChem BioAssay AID1259321 (Sanford-Burnham Center for Chemical Genomics, 2017):
Calls of active or inactive are those of the source.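 Rule for the calls: active = half-maximal concentration for changing protein binding to DNA, from the fitted dose curve, below 10 micromolar; inactive = the rest.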

Biological target: Nuclear receptor subfamily 1 group D member 1 (Homo sapiens) (UniProt P20393)
Test: modulators of Rev-erb alpha DNA binding, dose response, biochemical, FITC-DNA, fluorescence polarization (AID 1259321)

Sequence of Nuclear receptor subfamily 1 group D member 1 (Homo sapiens) (P20393 whole entry, looked up): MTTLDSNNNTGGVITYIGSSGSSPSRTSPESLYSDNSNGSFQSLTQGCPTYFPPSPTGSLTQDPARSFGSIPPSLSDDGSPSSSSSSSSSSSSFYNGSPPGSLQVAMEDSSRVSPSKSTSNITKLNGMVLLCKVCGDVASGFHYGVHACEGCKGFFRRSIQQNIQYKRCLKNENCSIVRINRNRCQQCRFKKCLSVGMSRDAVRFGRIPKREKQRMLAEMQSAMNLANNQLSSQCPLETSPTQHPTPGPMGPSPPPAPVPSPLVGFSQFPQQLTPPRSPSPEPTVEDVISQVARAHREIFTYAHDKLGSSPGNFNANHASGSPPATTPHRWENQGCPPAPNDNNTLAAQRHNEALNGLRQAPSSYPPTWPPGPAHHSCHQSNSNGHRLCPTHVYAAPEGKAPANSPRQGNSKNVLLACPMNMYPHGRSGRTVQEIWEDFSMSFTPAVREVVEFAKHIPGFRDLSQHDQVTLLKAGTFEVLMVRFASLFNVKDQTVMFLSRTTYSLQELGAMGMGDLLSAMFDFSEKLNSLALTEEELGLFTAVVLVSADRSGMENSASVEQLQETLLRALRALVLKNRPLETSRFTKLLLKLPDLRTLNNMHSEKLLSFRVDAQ

Structure (SMILES) | IC50
O=C(Nc1ccccc1C(F)(F)F)OCCN1C(=O)CCC12CCC(c1ccccc1)CC2 (stereo not drawn) | 7.99 µM
CC(=O)c1cnc2c(-c3cccc(Br)c3)cnn2c1C | > 40 µM (inactive)
O=c1c2ccccc2nc2sc(Nc3ccc(F)cc3)nn12 | inactive
Cn1c(SCC(=O)NCc2ccc3c(c2)OCO3)ncc(C(=O)Nc2ccc(F)cc2)c1=O | 3.91 µM
Cc1cc2c(s1)c1cnn(Cc3c(Cl)ccc(C)c3F)c(=O)c1n2C | inactive
O=S(=O)([N-]c1nc2ccccc2nc1-n1cc[n+](Cc2ccccc2)c1)c1ccc(Br)cc1 | 1.06 µM
COc1ccc(NC(=O)c2sc3cc(C(F)(F)F)cnc3c2-c2cccs2)cc1 | > 40 µM (inactive)
COc1ccc(-c2nc3c4ccccc4ccn3c2C=O)cc1 | inactive
CCOc1ccc(NC(=O)CSc2nc(C3CC3)nc3ccccc23)cc1 | 5.32 µM
CCOc1ccc(/C(CC)=N/NC(=O)C2(C)CC2(Br)Br)cc1 (stereo not drawn) | 7.81 µM
CCCc1cc(=O)oc2cc(C)cc(OCC(=O)Nc3ccc(S(N)(=O)=O)cc3)c12 | > 40 µM (inactive)
Nc1ccc2cc3ccc(N)cc3nc2c1 | > 40 µM (inactive)
Cc1nc(SCc2nc3c(F)cccc3[nH]2)c2oc3ccccc3c2n1 | > 40 µM (inactive)
COc1ccc(Cc2nc3ccccc3n2CC(=O)N/N=C/c2ccc(C)cc2O)cc1OC | 5.85 µM
COc1ccc(C(=O)Nc2nc3ccc4nc(C)sc4c3s2)cc1 | 9.47 µM
CC(=O)Oc1c(/C=C(\C#N)C(N)=O)[nH]c2ccccc12 | 2.18 µM
CC1(Cc2ccccc2OC(F)(F)F)C(=O)Nc2ccc(-c3ccsc3)cc21 (stereo not drawn) | 1.7 µM
CCN(CC)C(=O)Cn1c(C)c(/C=C/c2cc[n+](C)cc2)c2ccccc21 | 4.55 µM
CCN1/C(=C/c2ccc3cc(C)ccc3[n+]2CC)Sc2ccccc21 | > 40 µM (inactive)
COc1ccc(-c2ccc(-c3noc(-c4ccccc4F)n3)c(OC)n2)cc1 | 1.33 µM
CCc1nc(SCC(=O)NCc2ccco2)c2c3c(sc2n1)CCCC3 | inactive
CCCNC(=O)Nc1ccc2c(c1)C(=O)N(C)[C@H]1CC[C@H](CC(=O)NCC3CCCCC3)O[C@@H]1CO2 | > 40 µM (inactive)
COc1ccc(C(C)=O)cc1CSc1nc2ccccc2c(=O)n1-c1ccccc1 | > 40 µM (inactive)
Cc1ccc2c(n1)sc1c(-c3ccccc3)c(C#N)c(N)nc12 | inactive
COc1ccccc1CNc1ncnc2cc(Cl)ccc12 | 2.42 µM
COc1ccc(/C=C/C(=O)NC(=S)N2CCN(c3ccccc3OC)CC2)cc1 | 1.65 µM

Structure (SMILES) | IC50
CC1(Cc2ccccc2Cl)C(=O)Nc2ccc(OC(F)(F)F)cc21 (stereo not drawn) | 6.25 µM
COc1ccc(-n2nc(C(=O)NCC(=O)Nc3cc(Cl)c(OC)cc3OC)c3ccccc3c2=O)cc1 | inactive
COc1cccc(CNC(=O)CCCn2c(=S)[nH]c3cc4c(cc3c2=O)OCO4)c1 | 0.616 µM
C=CCOc1ccc(/C(O)=C2\C(=O)C(=O)N(CCN(C)C)C2c2cccs2)cc1 (stereo not drawn) | 7.38 µM
COC(=O)c1cccc(Cn2ccc3ccc(-c4ccc5ccn(C(=O)c6ccccc6C)c5c4)cc32)c1 | 2.94 µM
COc1ccc(NC(=O)NNC(=O)COc2ccc3cc(Br)ccc3c2)c(OC)c1 | > 40 µM (inactive)
CCc1cccc(NC(=O)c2ccc(Cn3c(=O)[nH]c4ccsc4c3=O)cc2)c1 | inactive
CC1(Cc2ccccc2C#N)C(=O)Nc2ccc(-c3ccccc3)cc21 (stereo not drawn) | 6.27 µM
COc1ccccc1N(C)S(=O)(=O)c1ccc(C(=O)Nc2nc(C)c(C(C)=O)s2)cc1 | inactive
CC(=O)OCC1OC(n2c(-c3ccc(Cl)cc3)ccc(C#N)c2=S)C(OC(C)=O)C(OC(C)=O)C1OC(C)=O (stereo not drawn) | inactive
O=c1ccc(-c2ccc(S(=O)(=O)N3CCN(c4ccccc4)CC3)o2)n[nH]1 | > 40 µM (inactive)
CCCCN1C(=O)/C(=C/C=C2\SCCN2C)SC1=S | 3.18 µM
COC(=O)c1cccc(Cn2ccc3ccc(-c4ccc5ccn(C(=O)C6CCCCC6)c5c4)cc32)c1 | 7.14 µM
c1ccc(-c2nc(SCc3nc4ccccc4[nH]3)c3oc4ccccc4c3n2)cc1 | 2.4 µM
COc1ccc(-c2c(C#Cc3ccsc3)c3cc(-c4ccc5c(c4)OCCO5)ccc3n2C)cc1 | > 40 µM (inactive)
CCCCN1C(=O)/C(=C/C=C2/CC(C)(C)CN2C)SC1=S | > 40 µM (inactive)
CS(=O)(=O)Nc1ccc(-c2ccc(/C=C3\SC(N)=NC3=O)o2)cc1 | 8.42 µM
CC(=O)Nc1ccc(O)c(-c2nc3ccccc3s2)c1 | inactive
COc1ccccc1-c1ccc2c(c1)C(C)(Cc1cc(Cl)ccc1C(F)(F)F)C(=O)N2 (stereo not drawn) | > 40 µM (inactive)
COc1cc(C(=O)Nc2nc(-c3ccc(Cl)cc3)c(C)s2)ccc1OCC(=O)Nc1ccc(F)cc1 | > 40 µM (inactive)
COc1ccc(NC(=O)CSc2nc3ccccc3c(=O)n2-c2ccc3c(c2)OCO3)c(OC)c1 | > 40 µM (inactive)
COC(=O)c1ccc2nc(Nc3nc4c(F)cc(F)cc4s3)sc2c1 | 2.14 µM
O=C(O)CSc1c2ccccc2cc2ccccc12 | > 40 µM (inactive)
O=C(/C=C/c1cccc2ccccc12)NCCC1=CCCCC1 | > 40 µM (inactive)
CCOc1ccccc1NC(=O)c1cnc2n(c1=O)CCS2 | > 40 µM (inactive)
CCOc1ccccc1NC(=O)CSC1=C(C#N)C(c2ccco2)C(C(=O)Nc2nc3ccccc3s2)=C(C)N1 (stereo not drawn) | 4.49 µM

Structure (SMILES) | IC50
CC(C)c1ccc(-c2c(C#N)c(N)nc(SCC(=O)N3CCCCC3)c2C#N)cc1 | 3.15 µM
COc1cc(/C=C2\SC(=O)N(CCNC(=O)c3sc4cc(F)ccc4c3Cl)C2=O)cc(OC)c1OC | 4.87 µM
CCCCCCCn1c(=O)c(C(=O)Nc2cnccn2)c(O)c2ccccc21 | inactive
COc1ccccc1NC(=O)c1cnc(SCC(=O)NCCc2ccccc2)n(C)c1=O | 4.36 µM
Fc1c(F)c(C(F)(F)F)c(F)c(F)c1N1CCN(c2ccc3nnc(C(F)(F)F)n3n2)CC1 | 1.71 µM
CC(C)CC[n+]1ccccc1/C=C/c1ccc(N(C)C)cc1 | inactive
O=C(Nc1nnc(C2CCCCC2)s1)c1ccc(Br)s1 | inactive
Cc1nn(-c2ccc(Cl)cc2)c2sc(C(=O)c3c(N)n(C)c(=O)n(C)c3=O)cc12 | 8.34 µM
O=C(COC(=O)c1cccnc1SCC(=O)NCc1ccccc1)NCc1ccccc1 | 4.11 µM
CCOC(=O)c1ccc2nc(Nc3nc4ccc(F)cc4s3)sc2c1 | 7.02 µM
Cc1ccc2cc(C#N)c(SCC(=O)NNC(=O)Cc3ccccc3)nc2c1 | 4.25 µM
Cc1sc2nc(Cc3ccccc3)[nH]c(=O)c2c1-c1ccccc1 | > 40 µM (inactive)
N#Cc1ccccc1N1CCN(C(=O)C2CCN(c3ncnc4c3sc3cccc(F)c34)CC2)CC1 | 4.47 µM
CCOC(=O)N1CCN(c2ncnc3c2oc2nc(C(C)C)c4c(c23)CCC4)CC1 | 5.3 µM
COc1ccc(C2C(C#N)=C(C)NC3=C2C(=O)c2ccccc23)cc1 (stereo not drawn) | inactive
CCc1cc2cc3c(cc2nc1SCC(=O)Nc1nnc(C)s1)OCCO3 | 5.32 µM
COc1ccc(/C=C2\SC(=O)N(CCC(=O)Nc3ccccc3)C2=O)cc1OC | inactive
CCCCc1nc2sc3c(SCCN(C)C)ncnc3c2c2c1CCC2 | 7.04 µM
COc1cc2[nH]c(=S)nc(NCCc3ccc(C)cc3)c2cc1OC | > 40 µM (inactive)
CCOC(=O)/C(C#N)=C/C=C1\C=Cc2ccccc2N1CC | > 40 µM (inactive)
c1cnc(SCC2CCCCC2)c(-c2nc3ccccc3[nH]2)c1 | 7.2 µM
Brc1cc(Br)c2ncnc(N3CCCCC3)c2c1 | 0.989 µM
COc1ccc(CC(=O)Nc2cc(C)c3c(=O)oc4ccccc4c3n2)cc1 | 4.42 µM
CC[n+]1ccc(/C=C/c2c[nH]c3ccccc23)cc1 | inactive
CCOc1ccccc1CNC(=O)C1CCN(c2nnc(C)c3c(C)n(-c4ccc(C)cc4)nc23)CC1 | > 40 µM (inactive)
CCCCN(C)C1=CC2=CC(=C(C#N)C#N)CCC2CC1 (stereo not drawn) | > 40 µM (inactive)

Structure (SMILES) | IC50
CCCN1C(=O)c2cccc3c(N4CCCCC4)ccc(c23)C1=O | 8.14 µM
COc1ccc(-c2cc(-c3ccc(OC)cc3)c(C#N)c(SC)n2)cc1 | 8.29 µM
O=C(CCn1c(=O)c2cccn2c2cccnc21)NCc1cccc(Cl)c1 | > 40 µM (inactive)
Cc1cc(C)c2nc(SCC(=O)N(C)C3CCS(=O)(=O)C3)cc(C)c2c1 (stereo not drawn) | 6.34 µM
O=C(NCc1ccccn1)c1ccc(Cn2c(=S)[nH]c3ccc(Br)cc3c2=O)cc1 | 2.63 µM
Cc1cc2cc3c(=O)[nH]c(=O)[nH]c3nc2cc1C | 3.34 µM
O=C1c2cccc3c(N4CCCCC4)ccc(c23)C(=O)N1CCO | inactive
CCOc1ccc(N=Nc2c(=O)[nH]n3c(=O)cc(C)[nH]c23)cc1 | > 40 µM (inactive)
CCOC(=O)c1nnn2c1nc(Nc1cccc(C(F)(F)F)c1)c1ccccc12 | 1.86 µM
O=C(Nc1ccc2c(c1)C(=O)NC2=O)c1cc(Cl)ccc1Cl | inactive
COc1ccc(-c2cc(-c3ccccc3)nc(SCC(=O)Nc3nccs3)c2C#N)cc1 | > 40 µM (inactive)
Cc1cccc2cc(C#N)c(SCC(=O)Nc3ccccc3N3CCOCC3)nc12 | inactive
CCn1c(SCC(=O)c2c[nH]c3ccccc23)nnc1-c1cccs1 | > 40 µM (inactive)
N#CCCN(CCC#N)S(=O)(=O)c1ccc(C(=O)Nc2nc(-c3ccccc3)c(C(=O)c3ccccc3)s2)cc1 | > 40 µM (inactive)
C=CCNC(=O)c1ccc(-c2nc(-c3ccc(Cl)cc3Cl)cs2)cc1 | 4.59 µM
CC1(C)Cc2c(c(N3CCCC3)nc3sc(C(=O)Nc4ccccc4)c(N)c23)CO1 | 3.37 µM
COc1ccc2c(C)cc(SCC(=O)Nc3cccnc3Cl)nc2c1 | > 40 µM (inactive)
CCOc1ccc2cc(C#N)c(SCC(=O)OC)nc2c1 | 3.74 µM
Cc1ccsc1C(=O)Nc1ccc(O)c(-c2nc3ccccc3s2)c1 | 6.87 µM
Cc1ccccc1C(=O)N=c1ccn(-c2nc3ccccc3nc2NS(=O)(=O)c2ccc(F)cc2)cc1 | 5.69 µM
CNc1ccc2c3c(cccc13)C(=O)N(C)C2=O | 4.6 µM
N#Cc1ccsc1NC(=O)COC(=O)c1cc(Br)ccc1O | inactive
CCOCCCn1c(=S)[nH]c2cc(C(=O)NCCc3ccccc3)ccc2c1=O | 3.56 µM
CCOc1ccccc1NC(=O)CSc1nc(N)c(C#N)cc1C#N | inactive
Cc1cc(=O)oc2cc(NC(=O)c3cccc(F)c3)ccc12 | 1.02 µM
